# According to patent publication US20040029889A1, “Heteroaryl alkyl piperazine derivatives as fatty acid oxidation inhibitors” (priority 2000, published 2004):
# Columns and labels:
# [1] = test system: mitochondrial fatty acid oxidation using palmitoyl CoA as substrate; assay: Palmitoyl CoA oxidation in isolated rat heart mitochondria; format: biochemical; conditions: 1-C14 palmitoyl CoA substrate, 15 min at 30° C., vs DMSO control; for Inhibition of mitochondrial fatty acid oxidation, % of Control, 100 μm (%): 100 μm compound; for Inhibition of mitochondrial fatty acid oxidation, % of Control, 50 μm (%): 50 μm compound
# Experimental: Rat heart mitochondria were isolated by the method of Nedergard and Cannon (Methods in Enzymol. 55, 3, 1979).
# Palmitoyl CoA oxidation—The Palmityl CoA oxidation was carried out in a total volume of 100 micro liters containing the following agents: 110 mM KCl, 33 mM Tris buffer at pH 8, 2 mM KPi, 2 MM MgCl2, 0.1 MM EDTA, 14.7 microM defatted BSA, 0.5 mM malic acid, 13 mM carnitine, 1 mM ADP, 52 micrograms of mitochondrial protein, and 16 microM 1-C14 palmitoyl CoA (Sp. Activity 60 mCi/mmole; 20 microCi/ml, using 5 microliters per assay). The compounds of this invention were added in a DMSO solution at the following concentrations: 100 microM, and 50 microM. In each assay, a DMSO control was used. After 15 min at 30° C., the enzymatic reaction was centrifuged (20,000 g for 1 min), and 70 microliters of the supernatant was added to an activated reverse phase silicic acid column (approximately 0.5 ml of silicic acid). The column was eluted with 2 ml of water, and 0.5 ml of the eluent was used for scintillation counting to determine the amount of C^14 trapped as C^14 bicarbonate ion.
# [2] = Metabolic stability in human liver S-9 fractions; format: in vitro ADME; conditions: % parent remaining after 30 min at 37 C divided by average % ranolazine remaining (57%), >1.2 better, 0.8-1.2 equivalent, <0.8 less stable than ranolazine
# Experimental: Metabolic Stability: As a measure of metabolic stability the compounds of this invention were incubated with human liver S-9 microsomal fractions. After, 30 minutes at 37 C, the amount of parent drug remaining was determined using LC-mass spec. The response factors for each compound was determined by establishing a standard curve and using an internal standard during the analysis of the samples. An average of five experiments for percentage of ranolazine remaining at the 30 minute time point is 57%. The compounds of this invention were assayed as described in the protocol below and the percentage of parent remaining was divided by the average % of ranolazine remaining (57%) affording a metabolic stability factor. A compound with a stability number greater than 1.2 has a better stability than ranolazine in the liver S-9 assay. A compound with a stability number between 1.2 and 0.8 has an equivalent stability in the liver S-9 assay.
# The purpose of this experiment is to compare the percentages remaining for compounds of this invention with the percentage remaining for ranolazine after 30 minutes of incubation with human liver S9 fractions.
# The following reagents were used; Potassium phosphate, 0.5M pH 7.4 (incubation buffer), kept at room temperature; 0.05M MgCl2 kept at 4° C.; β-Nicotinamide adenine dinucleotide phosphate, tetrasodium salt, reduced form (NADPH), 0.02M solution in water (˜16.6 mg/mL) from Sigma Lot # 79H7044 prepared on day of use. 1 mM of ranolazine or Compounds 43, 45, 47, 52, 70, 74, 76, 78, and 80 in ACN further diluted to obtain 100 μM in 10% ACN; Human S9 stock: 20 mg/mL from Gentest.
# Incubation mixtures were prepared as follows:
# Combine all components with incubation buffer and re-pipette 200 μL/tube+25 μL of the compound being tested along with 25 μL of S-9.
# After 5 min of pre-incubation at 37° C., at 0 and 30 min after starting the reaction, a 50 μl aliquot of the incubation mixture was removed and added to 100 μL of 9:1 acetonitrile: methanol containing the internal standard.
# The mixture was centrifuged and a 100 μL aliquot of the supernatant was diluted in 1 mL of solvent C (0.1% Formic Acid in water). Then samples were analyzed for change between the ratio of compound to internal standard at time zero and 30 minutes by LC/MS (injected 10 μL).
# Samples were analyzed for the starting compounds and potential metabolite/s by LC/MS using an internal standard and an ODS-C18 column with a flow rate of 0.25 ml/min.
Liver S9 Stability Factor [2],SMILES,"Inhibition of mitochondrial fatty acid oxidation, % of Control, 100 μm (%) [1]","Inhibition of mitochondrial fatty acid oxidation, % of Control, 50 μm (%) [1]"
,"Cc1cccc(C)c1NC(=O)CN1CCN(CC(O)COc2cccnc2)CC1 (centres unmarked) [Compound 72, N-(2,6-dimethylphenyl)-2-{4-[2-hydroxy-3-(pyridin-3-yloxy)-propyl]-piperazin-1-yl}acetamide]",8%,
0.1,"Cc1cccc(C)c1NC(=O)CN1CCN(CC(O)COc2cnc3ccccc3n2)CC1 (centres unmarked) [Compound 70, N-(2,6-dimethylphenyl)-2-{4-[2-hydroxy-3-(quinoxalin-2-yloxy)-propyl]-piperazin-1-yl}acetamide]",,
0.8,Cc1nc2cc(OCC(O)CN3CCN(CC(=O)Nc4c(C)cccc4C)CC3)ccc2s1 (centres unmarked) [Compound 45],87%,
0.6,Cc1cccc(C)c1NC(=O)CN1CCN(CC(O)COc2ccc3ncccc3c2)CC1 (centres unmarked) [Compound 78],42%,
0.5,"Cc1nc2cc(OCC(O)CN3C(C)CN(CC(=O)Nc4c(C)cccc4C)CC3C)ccc2s1 (centres unmarked) [Compound 52, N-(2,6-dimethylphenyl)-2-{4-[2-hydroxy-3-(2-methyl-benzothiazol-5-yloxy)-propyl]-3,5-dimethyl-piperazine-1-yl}acetamide]",95%,
1.5,"Cc1cccc(C)c1NC(=O)CN1CCN(CC(O)COc2ccc3ncsc3c2)CC1 (centres unmarked) [Compound 47, 2-{4-[3-(benzothiazol-6-yloxy)2-hydroxy-propyl]-piperazin-1-yl}-N-(2,6-dimethylphenyl)-acetamide]",70%,
,Cc1cccc(C)c1NC(=O)CN1CCN(CC(O)COc2cccc3nc(-c4ccccc4)sc23)CC1 (centres unmarked) [Compound 62],,62%
,"Cc1nc2ccc(OCC(O)CN3CCN(CC(=O)Nc4c(C)cccc4C)CC3)cc2s1 (centres unmarked) [Compound 49, N-(2,6-dimethylphenyl)-2-{4-[2-hydroxy-3-(2-methyl-benzothiazol-6-yloxy)-propyl]-piperazin-1-yl}aceamide]",3%,
,"Cc1cccc(C)c1NC(=O)CN1CCN(CC(O)CNc2nc3ccccc3s2)CC1 (centres unmarked) [Compound 39, 2-{4-[3-(benzothiazol-2-ylamino)-2-hydroxypropyl]piperazinyl}-N-(2,6-dimethylphenyl)acetamide]",27%,
0.6,"Cc1cccc(C)c1NC(=O)CN1CCN(CC(O)COc2nc3ccccc3s2)CC1 (centres unmarked) [Compound 43, 2-{4-[3-(benzothiazol-2-yloxy)-2-hydroxy-propyl]-piperazin-1-yl}-N-(2,6-dimethylphenyl)acetamide]",21%,
1.0,"Cc1cccc(C)c1NC(=O)CN1CCN(CC(O)COc2ccnc3ccccc23)CC1 (centres unmarked) [Compound 74, N-(2,6-dimethylphenyl)-2-{4-[2-hydroxy-3-(quinolin-4-yloxy)-propyl]-piperazin-1-yl}acetamide]",12%,
,"Cc1cccc(C)c1NC(=O)CN1CCN(CC(O)COc2ccc3oc(-c4cccc(C(F)(F)F)c4)nc3c2)CC1 (centres unmarked) [Compound 7, N-(2,6-dimethyl-phenyl)-2-(4-{2-hydroxy-3-[2-(3-trifluoromethylphenyl)benzoxazol-5-yloxy]-propyl}-piperazin-1-yl)acetamide]",,77%
0.8,"Cc1cccc(C)c1NC(=O)CN1CCN(CC(O)COc2cccc3cnccc23)CC1 (centres unmarked) [Compound 76, N-(2,6-dimethylphenyl)-2-{4-[2-hydroxy-3-(isoquinolin-5-yloxy)-propyl]-piperazin-1-yl}acetamide]",26%,
,"Cc1cccc(C)c1NC(=O)CN1CCN(CC(O)COc2ccc3oc(-c4ccc(C(F)(F)F)cc4)nc3c2)CC1 (centres unmarked) [Compound 68, N-(2,6-dimethylphenyl)-2-(4-{2-hydroxy-3-[2-(4-trifluoromethyl-phenyl)-benzoxazol-5-yloxy]-propyl}-piperazin-1-yl)acetamide]",,68%
1.1,Cc1cccc(C)c1NC(=O)CN1CCN(CC(O)COc2cccc3[nH]c(C(N)=O)cc23)CC1 (centres unmarked) [Compound 46],61%,
,"Cc1nc2cc(OCC(O)CN3CCN(CC(=O)Nc4c(C)cccc4C)C(=O)C3)ccc2s1 (centres unmarked) [Compound 64, N-(2,6-dimethylphenyl)-2-{4-[2-hydroxy-3-(2-methyl-benzothiazol-5-yloxy)-propyl]-2-oxo-piperazin-1-yl}acetamide]",41%,
,"Cc1cccc(C)c1NC(=O)CN1CCN(CC(O)CNc2nc3ccccc3o2)CC1 (centres unmarked) [Compound 82, 2-{4-[3-(benzoxazol-2-ylamino)-2-hydroxypropyl]piperazinyl}-N-(2,6-dimethylphenyl)acetamide]",22%,
0.5,"Cc1ccc2ccc(OCC(O)CN3CCN(CC(=O)Nc4c(C)cccc4C)CC3)cc2n1 (centres unmarked) [Compound 80, N-(2,6-dimethylphenyl)-2-{4-[2-hydroxy-3-(2-methyl-quinolin-7-yloxy)-propyl]-piperazin-1-yl}acetamide]",22%,
,"Cc1cccc(C)c1NC(=O)CN1CCN(CC(O)COc2ccc3oc(-c4ccccc4)nc3c2)CC1 (centres unmarked) [Compound 60, N-(2,6-dimethylphenyl)-2-{4-[2-hydroxy-3-(2-phenyl-benzoxazol-5-yloxy)-propyl)-piperazin-1-yl}acetamide]",,61%
,"Cc1nc2cc(OCC(O)CN3CCN(CC(=O)Nc4ccc(O)cc4)CC3)ccc2s1 (centres unmarked) [Compound 54, 2-{14-[2-hydroxy-3-(2-methyl-benzothiazol-5-yloxy)-propyl]-piperazin-1-yl}-N-(4-hydroxy-phenyl)acetamide]",81%,
